Experimental data published in US5547944A, “Dermatan sulphate possessing a thrombolytic activity, and pharmaceutical forms containing it” (Opocrin S.p.A., priority 1991, dated 1996).

What was measured:
bleeding time = conditions: in vivo
[1] = tested on: thrombus formations in the occluded vena cava; test: thrombolytic activity on already formed vena cava thrombus versus urokinase; format: in vivo, rat
Description: DS administered intravenously is active at a dose of 0.1 mg/kg in inhibiting 90% of a Jugular vein thrombosis induced by Protein Complex Concentrate (PCC) in the rabbit, and in inhibiting 70% of a thrombosis induced by a PCC/RVV (Russel Viper Venom) combination; (Fareed J. et al.; Sem. Thromb. Haemost. 11, 155-157 (1985)).
With dermatan sulphate fractions similar to the one coded 1.25M as obtained in Example 1b) comparative studies were made on thrombolytic activity versus urokinase. Four groups of 10 rats each were anaesthetised with 1 g/kg of urethane administered in endoperitoneal physiological solution by endoperitoneal route. The vena cava of the rats was subjected to ligature in line with the Reyers test (Thromb. Res. 18, 699, 1980), and two hours after the ligature 5 mg/kg/i.v. of DS and 5000 U/kg of Ukidan (Urokinase-Serono) were administered. After eight hours the thrombus formations in the occluded vein were removed.

effect on bleeding time (bleeding time) | Substance | reduction in thrombus weight ([1]; bolus then 6 hours infusion: DS 2.5 mg/kg + 1.25 mg/kg/hour, urokinase 2500 U/kg + 1250 U/kg/hour, relative to untreated controls) [%] | mean thrombus weight ([1]; treated two hours after ligature, 5 mg/kg i.v. DS or 5000 U/kg Ukidan, thrombus removed eight hours after ligature) [mg]
very little effect | dermatan sulphate [DS] | – | –
– | Urokinase | 70.2 | 2.2
